Consider 19 substances from patent US20250213707A1, “COMPOUND FOR INCREASING EFFICACY OF ONCOLYTIC VIRUSES” (ABLEVIA BIOTECH GMBH, priority 2022, published 2025).

The assay concerns IgG from human donors (anti-AAV antibodies). Briefly: Screen for anti-AAV antibodies in human sera, 2452 linear 15-amino-acid AAV peptides on microarrays (Table 1). It is filed as binding. On the set-up: key to group I: X: the deduplicated aggregate of the respective top 10 peptide hits for each donor was compiled and designated as group I; key to group II: X: the deduplicated aggregate of the respective top 25 peptide hits for each donor was compiled and designated as group II; key to group III: X: the deduplicated aggregate of the respective top 50 peptide hits for each donor was compiled and designated as group III. To be noted: for group I: membership in deduplicated aggregate of top 10 peptide hits for each donor; for group II: membership in deduplicated aggregate of top 25 peptide hits for each donor. As to the method: 2452 linear peptides derived from the sequences of 16 different AAVs and with a sequence length of 15 amino-acids each were synthesized.
Samples obtained from human donors were screened for antibodies against these AAV-derived peptides immobilized on microarrays. To this end, IgG was prepared from blood obtained from the human donors by protein G purification. Each IgG sample was incubated with the peptide microarrays and Ig binding signals were detected by fluorescence. All antibody binding signals to the peptides on the arrays were background subtracted and ranked for each sample and a deduplicated aggregate of the respective top 250 peptide hits for each donor with the corresponding protein sequence of origin (as obtained from UniProt or other sources) was compiled (designated as group IV). Further, the deduplicated aggregate of the respective top 50 peptide hits for each donor was compiled and designated as group III. Further, the deduplicated aggregate of the respective top 25 peptide hits for each donor was compiled and designated as group II. Finally, the deduplicated aggregate of the respective top 10 peptide hits for each donor was compiled and designated as group I.
Altogether, group I contains 110 distinct peptide hits (assigned to the corresponding AAV vectors in Table 1), group II contains 289 distinct peptide hits, group III contains 428 distinct peptide hits and group IV contains 1271 distinct peptide hits. Evidently, group I is a subset of group II which in turn is a subset of group III which in turn is a subset of group IV. Groups I-IV correspond to the top 4.4%, […], 17.5% and 51.8%, respectively, of all peptides screened.

Where [1] appears, read: X = peptide in the deduplicated aggregate of the top 50 peptide hits for each donor (top 17.5% of all peptides screened), linear 15-amino-acid AAV peptides on microarrays, human donor IgG, fluorescence.
[2] abbreviates: X = peptide belongs to the deduplicated aggregate of the top 50 peptide hits for each donor, linear 15-amino-acid AAV peptides, IgG binding by fluorescence.
Setting [3] is: human donor IgG binding to linear 15-amino-acid AAV peptides on microarray, fluorescence.
[4] abbreviates: membership in deduplicated aggregate of top 50 peptide hits for each donor, human donor IgG binding to linear 15-amino-acid AAV peptides on microarray, fluorescence.

As for “459 (YSTGQVTVEMEWELK; REGION 1..15: note = peptide derived from viral capsid protein) [compound 459]”, the “group III” value under setting [1] is reported as “X”.
For the substance “454 (YFGYSTPWGYFDFNR; REGION 1..15: note = peptide derived from viral capsid protein) [compound 454]”, under setting [1], the “group III” value was “X”.
On to “295 (DNPYLRYHADAEFQE; REGION 1..15: note = peptide derived from viral capsid protein) [compound 295]”, for which the “group III” value under setting [2] is given as “X”.
As for “470 (ANNLTSTVQVFTDDD; REGION 1..15: note = peptide derived from viral capsid protein) [compound 470]”, under setting [1], the “group III” value was “X”.
Consider “DWLEDNLSEGIREW (REGION 1..14: note = peptide derived from viral capsid protein) [SEQ ID NO: 1943]”, for which, under setting [3], the “group I” value is reported as “X” and the “group II” value is “X”. Also, the “group III” value under setting [4] is on record as “X”.
On to “320 (GPPPPKPAERHKDDS; REGION 1..15: note = peptide derived from viral capsid protein) [compound 320]”, for which the “group III” value under setting [2] is given as “X”.
With “324 (SDIRDQSRNWLPGPC; REGION 1..15: note = peptide derived from viral capsid protein) [compound 324]”, under setting [2], the “group III” value was “X”.
Take “347 (AVNLQSSSTDPATGD; REGION 1..15: note = peptide derived from viral capsid protein) [compound 347]”: the “group III” value under setting [2] is listed as “X”.
Still for that read-out and setting: as for “369 (EYQLPYVLGSAHQGC; REGION 1..15: note = peptide derived from viral capsid protein) [compound 369]”, the entry is “X”.
For the substance “DKAYDQQLKAGDNP (REGION 1..14: note = peptide derived from viral capsid protein) [SEQ ID NO: 1941]”, under setting [3], the “group I” value is on record as “X” and the “group II” value was “X”. Further, under setting [4], the “group III” value was “X”.
With “445 (NNSNFAWTAGTKYHL; REGION 1..15: note = peptide derived from viral capsid protein) [compound 445]”, under setting [1], the “group III” value was “X”.
With “LQQQNTAPQIGTVN (REGION 1..14: note = peptide derived from viral capsid protein) [SEQ ID NO: 1934]”, under setting [3], the “group I” value is on record as “X” and the “group II” value was “X”. In addition, the “group III” value under setting [4] was “X”.
Regarding “350 (TQYSTGQVSVEIEWE; REGION 1..15: note = peptide derived from viral capsid protein) [compound 350]”, the “group III” value under setting [2] is “X”.
With “416 (LNSFITQYSTGQVSV; REGION 1..15: note = peptide derived from viral capsid protein) [compound 416]”, the “group III” value under setting [1] was “X”.
For the substance PPQILIKNTPVPAD [SEQ ID NO: 1959], under setting [3], the “group I” value is “X” and the “group II” value was “X”. Besides, the “group III” value under setting [4] is “X”.
Turning to “327 (QVKEVTQNDGTTTIA; REGION 1..15: note = peptide derived from viral capsid protein) [compound 327]”, the “group III” value under setting [2] is “X”.
For “HYFGYSTPWGYFDF (REGION 1..14: note = peptide derived from viral capsid protein) [SEQ ID NO: 1917]”, under setting [3], the “group I” value was “X” and the “group II” value is recorded as “X”. Besides, under setting [4], the “group III” value is on record as “X”.
“QLPYVLGSAHQGCL (REGION 1..14: note = peptide derived from viral capsid protein) [SEQ ID NO: 1962]”: under setting [3], the “group I” value was “X” and the “group II” value is on record as “X”. For the same substance, the “group III” value under setting [4] is reported as “X”.
As to “333 (MITDEEEIRTTNPVA; REGION 1..15: note = peptide derived from viral capsid protein) [compound 333]”, under setting [2], the “group III” value is reported as “X”.
